Data as given in PubChem BioAssay AID844 (SRMLSC, 2007).
pEC50: −log10 of the molar value. Active and inactive are the calls of the source. No rule for the calls is given here.

Tested on: MRP1 cells, doxorubicin viability shift, 10 uM compound
Assay: doxorubicin EC50 increase in MRP-1 cells, dose response, cell-based, doxorubicin EC50 shift (AID 844)
Conditions: for pEC50: measured here: doxorubicin EC50 with compound

Structure (SMILES)	fold increase in Dox EC50	pEC50
O=C(Nc1ccc(F)cc1)c1c(O)c2c(n(Cc3ccccc3)c1=O)CCCC2	1.31 (inactive)	5.15
COc1ccc(C(=O)Nc2ccc(S(=O)(=O)Nc3nccnc3OC)cc2)cc1	1.12 (inactive)	5.22
O=C(CSc1ncn[nH]1)N1N=C2/C(=C/c3ccco3)CCCC2C1c1ccco1 (stereo not given)	0.4 (inactive)	5.66
COC(=O)/C(=C/Nc1ccc(O)cc1)[N+](=O)[O-]	0.21 (inactive)	5.95
Oc1c(C(c2cccs2)N2CCN(c3cccc(Cl)c3)CC2)sc2ncnn12 (stereo not given)	0.68 (inactive)	5.43
O=C(Nc1nc(-c2ccccc2)cs1)c1ccc(Br)o1	1.41 (inactive)	5.12
CCN(CC)S(=O)(=O)c1ccc(NN=C(C#N)C#N)cc1	0.68 (inactive)	5.43
Cc1cccc2c3nc4ccccc4nc3n(CCCN3C(=O)c4ccccc4C3=O)c12	0.13 (inactive)	6.14
Fc1ccc(N2CCN(c3ncnc4c3nnn4Cc3ccccc3Cl)CC2)cc1	0.86 (inactive)	5.33
CCOC(=O)CN(C(=O)CSc1nnc(COc2ccc(OC)cc2)n1C)c1ccccc1	0.6 (inactive)	5.49
O=C1c2cccc(OCc3ccc(F)cc3)c2CCN1Cc1ccc(F)cc1	1.08 (inactive)	5.23
C=CCc1c(C)nc(-c2ccccc2)nc1N/N=C(\C)c1ccc(N)cc1	1.3 (inactive)	5.16
CCC1SC2=NC(C)=C(C(=O)OC)C(c3cccs3)N2C1=O (stereo not given)	1.1 (inactive)	5.23
CCOC(=O)c1sc(-c2ccccc2)cc1NC(=O)Nc1ccccc1	0.4 (inactive)	5.66
COc1ccc(C(C)=O)cc1CSc1nnc(Nc2ccccc2C)s1	0.75 (inactive)	5.39
Cc1cc(C)nc(NN2C(=O)/C(=C/c3ccccc3)SC2=S)n1	1.56	5.07
NC1=NC(=O)/C(=C/c2cn(CCC(=O)O)nc2-c2ccc(Cl)cc2)S1	0.93 (inactive)	5.30
O=C(OC1CCc2ccccc2C1=O)c1ccccc1O (stereo not given)	0.69 (inactive)	5.43
Cc1nc(OCc2ccccc2)c2sc3nc4c(cc3c2n1)COC(C)(C)C4	1.3 (inactive)	5.15
CCNc1sc(C(=O)c2cccs2)c(N)c1-c1nc2ccccc2s1	0.59 (inactive)	5.50
COc1ccccc1N1CCN(C(=O)COc2ccc(Cl)cc2)CC1	0.8 (inactive)	5.36
COc1ccc(C(=O)NCc2ccc3c(c2)OCO3)cc1S(=O)(=O)N(C)Cc1ccccc1	0.75 (inactive)	5.39
CCn1c(COc2ccc(Cl)cc2)nnc1SCc1nc2ccccc2[nH]1	0.35 (inactive)	5.73
O=C1NC(=Nc2ccc(Cl)cc2)SC1Cc1cccc(Cl)c1Cl (stereo not given)	1.19 (inactive)	5.19
C=CCn1c(CNc2ccccc2)nnc1SCC(=O)N/N=C/c1ccccc1O	0.58 (inactive)	5.51
N/C(=N\N=C\c1ccc2c(c1)OCO2)c1nonc1N	0.88 (inactive)	5.32
CCCCCn1c(CN2CCCCC2C)nc2c1c(=O)n(C)c(=O)n2C (stereo not given)	0.16 (inactive)	6.05
Cc1cc(NC(=O)CN2C(=O)S/C(=C\c3ccccc3)C2=O)no1	1.03 (inactive)	5.25

Structure (SMILES)	fold increase in Dox EC50	pEC50
O=C(N/N=C/c1ccc(-c2ccc([N+](=O)[O-])cc2)o1)C(O)c1ccccc1 (stereo not given)	0.74 (inactive)	5.40
COc1ccc(C(=O)NCc2ccc(-c3nc4ccccc4s3)cc2)cc1	1.57	5.07
N#CCSc1nc2cc(C(=O)N3CCC(C(N)=O)CC3)ccc2c2nc3ccccc3n12	0.86 (inactive)	5.34
CCCCC1S/C(=N/N=C/c2ccc(OC)cc2)N(Cc2ccc(OC)cc2)C1=O (stereo not given)	1.18 (inactive)	5.20
CCOC(=O)/C=C1\SCC(=O)N1CCOc1cccc(Br)c1	1.2 (inactive)	5.19
COc1ccc(NC(=O)c2oc3ccccc3c2NC(=O)C(C)(C)C)cc1	0.63 (inactive)	5.47
CC(C)(C)c1ccc(OCC(O)CSc2ncn[nH]2)cc1 (stereo not given)	0.88 (inactive)	5.32
Cc1cc(C)n(CCc2nc(-c3ccc(-c4ccccc4)cc3)cs2)n1	1.82	5.01
CCN=c1scc(C)n1/N=C/c1ccc(O)c(O)c1O	0.18 (inactive)	6.01
O=C1NC(=Nc2ccc(Cl)cc2)SC1Cc1cc(Cl)ccc1Cl (stereo not given)	1.09 (inactive)	5.23
CC(NC(=O)CN1CCN(Cc2ccc(Cl)cc2)C1=O)c1ccc2c(c1)OCCO2 (stereo not given)	0.87 (inactive)	5.33
Cn1nnc(NC(=O)COc2ccc(C3CCCCC3)cc2)n1	1.49	5.09
COc1ccc(Cc2nnc(N/N=C/c3ccc(O)cc3O)[nH]c2=O)cc1OC	0.15 (inactive)	6.08
CCC1(C)Cc2c(sc3nnn(CC(=O)Nc4ccc(C)cc4)c(=O)c23)CO1 (stereo not given)	1.07 (inactive)	5.24
O=C1CC(c2nc3ccccc3[nH]2)CN1c1cccc(C(F)(F)F)c1 (stereo not given)	1.24 (inactive)	5.17
CCOc1ccccc1CNC(=O)c1cc2oc3ccccc3c2n1CC	1.24 (inactive)	5.17
CCOc1ccc2nc(SCC#N)c(C#N)cc2c1	0.3 (inactive)	5.79
CCCCc1ccc(NC(=O)c2c(C)noc2C)cc1	1.23 (inactive)	5.18
O=C(COc1ccc(F)cc1)Nc1ccc(-n2cnnn2)cc1	0.75 (inactive)	5.39
Cc1ccc(C(=O)COc2ccccc2-c2ccccc2)cc1C	0.9 (inactive)	5.31
N=c1oc2c3c4c(cc2cc1C(=O)Nc1ccccc1)CCCN4CCC3	0.43 (inactive)	5.63
CCN(CC(=O)NC(C)C)C(=O)c1ccc(Cl)cc1	0.45 (inactive)	5.62
Cc1nc(C)c(C(=O)NNS(=O)(=O)c2ccccc2)s1	0.83 (inactive)	5.35
CC(C)Cn1c2c(c(O)c(C(=O)Nc3nccs3)c1=O)CCCC2	0.83 (inactive)	5.35
CCCC1S/C(=N/N=C/c2ccc(OC)cc2)N(Cc2ccccc2)C1=O (stereo not given)	1 (inactive)	5.27
O=C(Nc1nc(=O)n(C(=O)C2CC2)s1)c1ccccc1	0.55 (inactive)	5.53
CCOc1ccccc1NC(=O)c1cccc(NC(=O)CC(c2ccccc2)c2ccccc2)c1	1.2 (inactive)	5.19
